Laboratory results reported in PMC6749418, “SAR by Space: Enriching Hit Sets from the Chemical Space” (Molecules, 2019).
Where two headings read alike, the source gives them in different places.

Legend:
BRD4 = details: cited from earlier work
bromodomain 1 of BRD4 = test system: T1, bromodomain 1 of BRD4; assay: Thermal shift assay (TSA) with recombinant, truncated, His-tagged bromodomain 1 of BRD4; format: binding; details: 1% DMSO, 4 μM protein; for ΔTm (°C) at 10 μM: compound at 10 μM; for ΔTm (°C) at 20 μM: compound at 20 μM; for ΔTm (°C) at 40 μM: compound at 40 μM
T1 construct: made in house
Method: The compounds were synthesized according to the standard protocols for typical parallel synthesis transformations, including amide/sulfonamide coupling, reductive amination, urea synthesis, arylation/alkylation, etc. The synthesis was completed in a three-week period and all the 32 compounds could actually be synthesized. The products obtained were subjected to thermal shift assay (TSA) using recombinant, truncated, His-tagged bromodomain 1 of BRD4 [28] at 40, 20, and 10 μM (Figure 4). The hit selection criteria followed those described in our previous publication:|ΔTm| ≥ |ΔTm,av| + 3|σ(ΔTm)|(1) |ΔTm| ≥ 2|σ(Tm,DMSO)|(2) where ΔTm—thermal shift caused by the compound; ΔTm,av—mean thermal shift value within the plate; σ(ΔTm)—standard deviation of the thermal shift values within the plate; σ(Tm,DMSO)—standard deviation of the melting temperature values obtained for the control samples.
All tested compounds were obtained from Enamine Ltd. (Kyiv, Ukraine). Stock solutions of the tested compounds were prepared in 100% DMSO and were stored at −20 °C until use. The bromodomain 1 of BRD4 was expressed using pNIC28-Bsa4 plasmid vector with an insert representing domain 1 of BRD4 (44–168 AA, sequence entry O60885.1 in UniProtKB Database), N-terminus His6-tag and 16-amino acid linker.
All thermal shift assay (TSA) experiments with BRD4 protein were performed using ViiA™7 real-time PCR System equipped with 384-well heat block (Applied Biosystems, Waltham, MA, USA). General TSA methodology was adopted from the literature and experimentally modified in order to optimize conditions for measuring BRD4 melting temperature shifts upon interaction with small molecules. The optimal buffer composition for the TSA procedure was determined as described previously. Buffer consisting of 50 mM Phosphate-Na, 100 mM NaCl, pH = 7.5 was selected for BRD4 screening in this study. Purified BRD4 protein was pre-mixed with SYPRO Orange dye (Thermo Fischer Scientific, Cat. S6650, 5000x stock, Waltham, MA, USA) to prepare a master mix at 4 μM protein and 6× dye concentrations. Tested compounds were added to the protein-dye master mix at 40, 20, or 10 μM at 1% final DMSO concentration and incubated at 4 °C for 1 h in MicroAmp® optical 384-well reaction plates (ThermoFisher, Cat. 4309849, Waltham, MA, USA) sealed with optical sealing film (ThermalSeal RT2, Excel Scientific, Cat. TS-RT2, Victorville, CA, USA). The volumes of all reaction mixtures were 10 µL ([…]). The reaction plates were then kept at ambient temperature (22–24 °C) for an additional 15 min to ensure protein-compound interactions. Thermal scanning was performed by raising the temperature to 40 °C at 1.6 °C/min without signal detection followed by 40 °C to 90 °C temperature ramp at 0.05 °C/s with constant fluorescence intensity reading at 1-sec intervals using EX470/EM623 nm filter set.
Primary screening of the whole test set of 49 compounds was carried out in singletons. The raw data of dye fluorescence intensity change upon protein melt were exported using the ViiA7 RUO software (Applied Biosystems/Thermo Fischer Scientific). Further data visualization, curve fitting, melting temperature calculations on the raw fluorescence data were performed using custom-made Microsoft Excel scripts. The peak of the first derivative for the fluorescence curve was used to define melting temperature (Tm). Averaged Tm values for the control wells containing only the protein, dye and 1% DMSO were used as a reference point to determine melting temperature shifts (ΔTm).

BRD4 (BD1+BD2) = molecular target: T2, BRD4 (BD1+BD2) (Homo sapiens, UniProt O60885); assay: BRD4 (BD1+BD2) TR-FRET assay, IC50 measurement; format: biochemical; details: average from three independent experiments
T2 construct: BRD4 (BD1+BD2) TR-FRET assay kit from BPS Bioscience; purchased BPS Bioscience
Method: Dose-response curves were built for these compounds, and for 5 of them, IC50 values were determined in TR-FRET assay as an average from three independent experiments (Table 1). Comparing the resulting hit molecules with the corresponding initial queries, one can see considerable structural differences. […] The relatively high FTrees similarity explains why they were not missed in the REAL Space search: The molecules still have very similar pharmacophoric properties in a similar arrangement. […] This is exemplary shown in Figure 7 for compound 20 and its respective query molecule 15. The shift of the nitrogen atom to the β position of the pyridine ring, as well as the different linker length, led to a completely flipped binding mode. It is also important to stress that the starting points of this study which led to the hits (compounds 19–22) had no significant activity against BRD4 in the functional (TR-FRET) assay; they were identified only in the binding assay (TSA).
All TR-FRET assays and IC50 measurements were performed using BRD4 (BD1+BD2) TR-FRET assay kit from BPS Bioscience (www.bpsbioscience.com) following the standard procedure.

[1] = investigational BRD4 inhibitors, Figure 1

| IC50 (BRD4 (BD1+BD2)) | SMILES | IC50 (BRD4; [1]) | ΔTm (°C) at 10 μM (bromodomain 1 of BRD4) | ΔTm (°C) at 20 μM (bromodomain 1 of BRD4) | ΔTm (°C) at 40 μM (bromodomain 1 of BRD4) | inhibition at 10 μM (BRD4; 10 μM, known BRD4 inhibitors, Figure 6) | IC50 (BRD4; known BRD4 inhibitors, Figure 6) |
| --- | --- | --- | --- | --- | --- | --- | --- |
|  | COc1nnc2ccc(N3CCC(c4ccc(OCCN5CCN(C)C(=O)[C@H]5C)cc4)CC3)nn12 [AZD5153] | 0.005 µM |  |  |  |  |  |
| 10.7 µM | CC1(C)C(=O)Nc2ccc(C(=O)Nc3cc(Cl)c(O)cc3F)cc21 [C00002] |  | 0.31 ± 0.05 °C | 0.39 ± 0.08 °C | 0.71 ± 0.01 °C |  |  |
| 68.2 µM | CC(C)(CNc1ccc2nnc(C(F)(F)F)n2n1)c1cccnc1 [C00007] |  | 0.34 ± 0.19 °C | 0.78 ± 0.14 °C | 1.56 ± 0.05 °C |  |  |
|  | O=C1CCc2cc(NC(=O)Nc3ccc(C(F)(F)F)cc3)ccc2N1 [compound 32] |  |  |  |  | up to 92% |  |
|  | O=C1Nc2ccc(NS(=O)(=O)C3CCCCC3)cc2C12CCC2 [compound 31] |  |  |  |  |  | < 0.15 µM |
|  | Cc1noc2c1-c1ccccc1C(c1ccc(Cl)cc1)=N[C@H]2CC(N)=O [CPI-0610] | 0.018 µM |  |  |  |  |  |
| 141 µM | CCC1Oc2cc(C(C)NC(=O)Cc3c(C)nc4[nH][nH]c(=O)c4c3C)ccc2NC1=O (stereo not shown) [C00009] |  | 0.29 ± 0.01 °C | 0.44 ± 0.06 °C | 0.53 ± 0.25 °C |  |  |
|  | CCS(=O)(=O)Nc1ccc(Oc2ccc(F)cc2F)c(-c2cn(C)c(=O)c3[nH]ccc23)c1 [mivebresib, Mivebresib] | 0.001 to 0.002 µM |  |  |  |  |  |
| 26.4 µM | CC1CC(=O)N(C)c2ccc(NC(=O)NCc3nc(N(C)C)no3)cc21 (stereo not shown) [C00004] |  | 0.30 ± 0.10 °C | 0.72 ± 0.41 °C | 1.52 ± 0.59 °C |  |  |
| 44.6 µM | CC(C)(C)c1nnc2ccc(NCC(C)(C)c3cccnc3)nn12 [C00006] |  | 0.34 ± 0.13 °C | 0.98 ± 0.22 °C | 1.33 ± 0.17 °C |  |  |
